{"source": "patent US4345938A", "about": "“Herbicidal 2-haloacetanilides” (Monsanto Company, priority 1980, dated 1982)", "key": {"Echinochloa crus-galli": {"system": "Echinochloa crus-galli", "test": "Field transplant rice test, applied 9 DAT, EC", "assay_type": "in vivo", "details": "for inhibition at 375 g/ha / inhibition at 750 g/ha / inhibition at 1500 g/ha / inhibition at 3000 g/ha: Echinochloa crus-galli, 216 h, read-out: Percent Inhibition, EC; for inhibition at 375 g/ha: 0.375 Kg/Ha; for inhibition at 750 g/ha: 0.75 Kg/Ha; for inhibition at 1500 g/ha: 1.5 Kg/Ha; for inhibition at 3000 g/ha: 3.0 Kg/Ha", "outline": "(§1)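 Field test in transplanted rice, herbicides applied as granules (2.5% or 5.0% w/w active) 9 days after transplant at 3.0 down to 0.375 kg/ha. Weed control observed weekly from 3 to 7 weeks after transplant.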"}, "Monochoria vaginalis": {"system": "Monochoria vaginalis", "test": "Field transplant rice test, applied 9 DAT, MV", "assay_type": "in vivo", "details": "for inhibition at 375 g/ha / inhibition at 750 g/ha / inhibition at 1500 g/ha / inhibition at 3000 g/ha: Pontederia vaginalis, 216 h, read-out: Percent Inhibition, MV; for inhibition at 375 g/ha: 0.375 Kg/Ha; for inhibition at 750 g/ha: 0.75 Kg/Ha; for inhibition at 1500 g/ha: 1.5 Kg/Ha; for inhibition at 3000 g/ha: 3.0 Kg/Ha", "outline": "as §1"}, "Rice [1]": {"system": "Rice", "test": "Field transplant rice test, applied 0 DAT, rice injury", "assay_type": "in vivo", "details": "Oryza sativa, 0 h, read-out: Percent Inhibition, Rice; for inhibition at 375 g/ha: 0.375 Kg/Ha; for inhibition at 750 g/ha: 0.75 Kg/Ha; for inhibition at 1500 g/ha: 1.5 Kg/Ha; for inhibition at 3000 g/ha: 3.0 Kg/Ha", "outline": "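Field test in transplant rice with herbicide applied as granules at transplanting (0 DAT), at rates from 3.0 kg/ha down to 0.375 kg/ha. Injury was rated weekly from 2 to 6 weeks after transplant. Granules held 2.5% or 5.0% herbicide by weight, depending on compound.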"}, "Cyperus serotinus [2]": {"system": "Cyperus serotinus", "test": "Field transplant rice test, applied 0 DAT, CS", "assay_type": "in vivo", "details": "0 h, read-out: Percent Inhibition, CS; for inhibition at 375 g/ha: 0.375 Kg/Ha; for inhibition at 750 g/ha: 0.75 Kg/Ha; for inhibition at 1500 g/ha: 1.5 Kg/Ha; for inhibition at 3000 g/ha: 3.0 Kg/Ha", "outline": "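Field test in transplanted rice, herbicide applied as granules (2.5% or 5.0% w/w active) at transplanting (0 DAT). Rates from 3.0 kg/ha down to 0.375 kg/ha. Weed control observed weekly from 2 to 6 weeks after transplant, reported at 2, 4 and 6 WAT.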"}, "Cyperus serotinus [3]": {"system": "Cyperus serotinus", "test": "Field transplant rice test, applied 9 DAT, CS", "assay_type": "in vivo", "details": "for inhibition at 375 g/ha / inhibition at 750 g/ha / inhibition at 1500 g/ha / inhibition at 3000 g/ha: Cyperus serotinus, 216 h, read-out: Percent Inhibition, CS; for inhibition at 375 g/ha: 0.375 Kg/Ha; for inhibition at 750 g/ha: 0.75 Kg/Ha; for inhibition at 1500 g/ha: 1.5 Kg/Ha; for inhibition at 3000 g/ha: 3.0 Kg/Ha", "outline": "as §1"}, "Rice [4]": {"system": "Rice", "test": "Greenhouse transplant rice test, rice injury", "assay_type": "in vivo, Rice (Bluebelle)", "details": "Oryza sativa, about 3 WAT, read-out: Percent Inhibition, Rice", "text": "The test procedure used in this greenhouse test is as follows: Ray silt loam top soil containing about 0.05% by weight of krillium and sifted through a […] screen is fumigated about 5-10 days prior to use. Pots are then filled with said Ray silt loam soil to a level to allow for a 1 in. (2.54 cm) flooding depth. Rice plants (Bluebelle) of 2 to 3 weeks age are transplanted to the pots and bulbs or seeds of the test weeds also planted in the pots. The pots are then flooded and the test chemical applied to the surface of the flood water. The flood water is reduced to allow for germination of the Echinochloa crus-galli (barnyardgrass) seed and subsequently reflooded and maintained in that condition. Observations of percent inhibition using a scale of 0-100% are made about 3 weeks after transplant (WAT).\nThe test data in Table III for all compounds was obtained under identical test conditions. The weeds used in the tests herein have the following abbreviations in the tables: Echinochloa crus-galli (EC), Monochloria vaginalis (MV), Cyperus Serotinus (CS), Eleocharis Kuroguwai (EK) and Sagittaria trifolia (ST)."}}, "note": "Where two headings read alike, the source gives them in different places."}
{"smiles": "CCCCOCN(C(=O)CCl)c1c(CC)cccc1CC", "note": "[Compound A, 2',6'-diethyl-N-(n-butoxymethyl)-2-chloroacetanilide]", "values": [{"measurement": "inhibition at 375 g/ha", "setting": "Echinochloa crus-galli; 3 WAT", "result": 23, "unit": "%"}, {"measurement": "inhibition at 375 g/ha", "setting": "Echinochloa crus-galli; 5 WAT", "result": 20, "unit": "%"}, {"measurement": "inhibition at 375 g/ha", "setting": "Echinochloa crus-galli; 7 WAT", "result": 17, "unit": "%"}, {"measurement": "inhibition at 750 g/ha", "setting": "Echinochloa crus-galli; 3 WAT", "result": 80, "unit": "%"}, {"measurement": "inhibition at 750 g/ha", "setting": "Echinochloa crus-galli; 5 WAT", "result": 75, "unit": "%"}, {"measurement": "inhibition at 750 g/ha", "setting": "Echinochloa crus-galli; 7 WAT", "result": 70, "unit": "%"}, {"measurement": "inhibition at 1500 g/ha", "setting": "Echinochloa crus-galli; 3 WAT", "result": 88, "unit": "%"}, {"measurement": "inhibition at 1500 g/ha", "setting": "Echinochloa crus-galli; 5 WAT", "result": 90, "unit": "%"}, {"measurement": "inhibition at 1500 g/ha", "setting": "Echinochloa crus-galli; 7 WAT", "result": 85, "unit": "%"}, {"measurement": "inhibition at 3000 g/ha", "setting": "Echinochloa crus-galli; 3 WAT", "result": 93, "unit": "%"}, {"measurement": "inhibition at 3000 g/ha", "setting": "Echinochloa crus-galli; 5 WAT", "result": 93, "unit": "%"}, {"measurement": "inhibition at 3000 g/ha", "setting": "Echinochloa crus-galli; 7 WAT", "result": 90, "unit": "%"}, {"measurement": "selectivity factor (GR15/GR85), EC in transplant rice", "setting": "Echinochloa crus-galli; between 3 WAT and 7 WAT", "result": 2}, {"measurement": "inhibition at 375 g/ha", "setting": "Monochoria vaginalis; 3 WAT", "result": 90, "unit": "%"}, {"measurement": "inhibition at 375 g/ha", "setting": "Monochoria vaginalis; 5 WAT", "result": 98, "unit": "%"}, {"measurement": "inhibition at 375 g/ha", "setting": "Monochoria vaginalis; 7 WAT", "result": 80, "unit": "%"}, {"measurement": "inhibition at 750 g/ha", "setting": "Monochoria vaginalis; 3 WAT", "result": 92, "unit": "%"}, {"measurement": "inhibition at 750 g/ha", "setting": "Monochoria vaginalis; 5 WAT", "result": 87, "unit": "%"}, {"measurement": "inhibition at 750 g/ha", "setting": "Monochoria vaginalis; 7 WAT", "result": 60, "unit": "%"}, {"measurement": "inhibition at 1500 g/ha", "setting": "Monochoria vaginalis; 3 WAT", "result": 100, "unit": "%"}, {"measurement": "inhibition at 1500 g/ha", "setting": "Monochoria vaginalis; 5 WAT", "result": 100, "unit": "%"}, {"measurement": "inhibition at 1500 g/ha", "setting": "Monochoria vaginalis; 7 WAT", "result": 100, "unit": "%"}, {"measurement": "inhibition at 3000 g/ha", "setting": "Monochoria vaginalis; 3 WAT", "result": 100, "unit": "%"}, {"measurement": "inhibition at 3000 g/ha", "setting": "Monochoria vaginalis; 5 WAT", "result": 100, "unit": "%"}, {"measurement": "inhibition at 3000 g/ha", "setting": "Monochoria vaginalis; 7 WAT", "result": 100, "unit": "%"}, {"measurement": "selectivity factor (GR15/GR85), MV in transplant rice", "setting": "Monochoria vaginalis; between 3 WAT and 7 WAT", "result": 8}, {"measurement": "inhibition at 375 g/ha", "setting": "Rice [1]; 2 WAT", "result": 8, "unit": "%"}, {"measurement": "inhibition at 375 g/ha", "setting": "Rice [1]; 4 WAT", "result": 10, "unit": "%"}, {"measurement": "inhibition at 375 g/ha", "setting": "Rice [1]; 6 WAT", "result": 7, "unit": "%"}, {"measurement": "inhibition at 750 g/ha", "setting": "Rice [1]; 2 WAT", "result": 2, "unit": "%"}, {"measurement": "inhibition at 750 g/ha", "setting": "Rice [1]; 4 WAT", "result": 0, "unit": "%"}, {"measurement": "inhibition at 750 g/ha", "setting": "Rice [1]; 6 WAT", "result": 0, "unit": "%"}, {"measurement": "inhibition at 1500 g/ha", "setting": "Rice [1]; 2 WAT", "result": 8, "unit": "%"}, {"measurement": "inhibition at 1500 g/ha", "setting": "Rice [1]; 4 WAT", "result": 23, "unit": "%"}, {"measurement": "inhibition at 1500 g/ha", "setting": "Rice [1]; 6 WAT", "result": 5, "unit": "%"}, {"measurement": "inhibition at 3000 g/ha", "setting": "Rice [1]; 2 WAT", "result": 10, "unit": "%"}, {"measurement": "inhibition at 3000 g/ha", "setting": "Rice [1]; 4 WAT", "result": 2, "unit": "%"}, {"measurement": "inhibition at 3000 g/ha", "setting": "Rice [1]; 6 WAT", "result": 3, "unit": "%"}, {"measurement": "inhibition at 375 g/ha", "setting": "Cyperus serotinus [2]; 2 WAT", "result": 67, "unit": "%"}, {"measurement": "inhibition at 375 g/ha", "setting": "Cyperus serotinus [2]; 4 WAT", "result": 67, "unit": "%"}, {"measurement": "inhibition at 375 g/ha", "setting": "Cyperus serotinus [2]; 6 WAT", "result": 63, "unit": "%"}, {"measurement": "inhibition at 750 g/ha", "setting": "Cyperus serotinus [2]; 2 WAT", "result": 95, "unit": "%"}, {"measurement": "inhibition at 750 g/ha", "setting": "Cyperus serotinus [2]; 4 WAT", "result": 93, "unit": "%"}, {"measurement": "inhibition at 750 g/ha", "setting": "Cyperus serotinus [2]; 6 WAT", "result": 93, "unit": "%"}, {"measurement": "inhibition at 1500 g/ha", "setting": "Cyperus serotinus [2]; 2 WAT", "result": 90, "unit": "%"}, {"measurement": "inhibition at 1500 g/ha", "setting": "Cyperus serotinus [2]; 4 WAT", "result": 82, "unit": "%"}, {"measurement": "inhibition at 1500 g/ha", "setting": "Cyperus serotinus [2]; 6 WAT", "result": 77, "unit": "%"}, {"measurement": "inhibition at 3000 g/ha", "setting": "Cyperus serotinus [2]; 2 WAT", "result": 73, "unit": "%"}, {"measurement": "inhibition at 3000 g/ha", "setting": "Cyperus serotinus [2]; 4 WAT", "result": 68, "unit": "%"}, {"measurement": "inhibition at 3000 g/ha", "setting": "Cyperus serotinus [2]; 6 WAT", "result": 50, "unit": "%"}, {"measurement": "inhibition at 375 g/ha", "setting": "Cyperus serotinus [3]; 3 WAT", "result": 80, "unit": "%"}, {"measurement": "inhibition at 375 g/ha", "setting": "Cyperus serotinus [3]; 5 WAT", "result": 33, "unit": "%"}, {"measurement": "inhibition at 375 g/ha", "setting": "Cyperus serotinus [3]; 7 WAT", "result": 67, "unit": "%"}, {"measurement": "inhibition at 750 g/ha", "setting": "Cyperus serotinus [3]; 3 WAT", "result": 70, "unit": "%"}, {"measurement": "inhibition at 750 g/ha", "setting": "Cyperus serotinus [3]; 5 WAT", "result": 50, "unit": "%"}, {"measurement": "inhibition at 750 g/ha", "setting": "Cyperus serotinus [3]; 7 WAT", "result": 38, "unit": "%"}, {"measurement": "inhibition at 1500 g/ha", "setting": "Cyperus serotinus [3]; 3 WAT", "result": 100, "unit": "%"}, {"measurement": "inhibition at 1500 g/ha", "setting": "Cyperus serotinus [3]; 5 WAT", "result": 100, "unit": "%"}, {"measurement": "inhibition at 1500 g/ha", "setting": "Cyperus serotinus [3]; 7 WAT", "result": 100, "unit": "%"}, {"measurement": "inhibition at 3000 g/ha", "setting": "Cyperus serotinus [3]; 3 WAT", "result": 88, "unit": "%"}, {"measurement": "inhibition at 3000 g/ha", "setting": "Cyperus serotinus [3]; 5 WAT", "result": 100, "unit": "%"}, {"measurement": "inhibition at 3000 g/ha", "setting": "Cyperus serotinus [3]; 7 WAT", "result": 100, "unit": "%"}, {"measurement": "selectivity factor (GR15/GR85), CS in transplant rice", "setting": "Cyperus serotinus [3]; between 3 WAT and 7 WAT", "result": 2}, {"measurement": "inhibition at 280 g/ha", "setting": "Rice [4]; 0.28 Kg/Ha", "result": 5, "unit": "%"}, {"measurement": "inhibition at 560 g/ha", "setting": "Rice [4]; 0.56 Kg/Ha", "result": 10, "unit": "%"}, {"measurement": "inhibition at 1120 g/ha", "setting": "Rice [4]; 1.12 Kg/Ha", "result": 10, "unit": "%"}, {"measurement": "inhibition at 2240 g/ha", "setting": "Rice [4]; 2.24 Kg/Ha", "result": 15, "unit": "%"}]}
